{
  "source": "patent US4939124A",
  "about": "“Treatment and diagnosis of dementia” (Laboratorios Serono S.A., priority 1988, dated 1990)",
  "key": {"[1]": {"system": "female in-patients with primary degenerative dementia (Alzheimer like)", "experiment": "8-day GRF (1-29) NH2 therapy, MMS Folstein test and Crichton's scale", "format": "in vivo, human", "details": "MMS-Folstein test and Crichton's scale test", "procedure": "Twenty female in-patients with primary degenerative dementia (Alzheimer like) aged 67-84 years were divided in two therapy-groups with GRF (1-29) NH2. All patients were treated with this product for 8 days with either of the following schedules: (I) 250 mcg s.c. twice daily (II) 50 mcg i.v. twice daily Therapy was started after a 15-day wash-out period for psychotropic-drugs. Evolution of patients was assessed using the MMS Folstein test and Chrichton's scale test at 12 hours, 24 hours and 7 days after starting with GRF. The statistical evaluation was made using Friedman test with a risk level p<0,01 (highly significant differences)."}, "Male Wistar rats [2]": {"system": "Male Wistar rats", "experiment": "Locomotor activity in open field paradigm (OUCEM-86), i.c.v. injection", "format": "in vivo", "details": "for ED50 of change in LA / Emax of change in LA (given as a dose): i.c.v., dose range 0.1 to 10 mcg", "text": "(§1) To clarify whether SS and GRF display at the central level the same antagonistic effect that they have at the pituitary level, the effects of these neuropeptides on several behavioral parameters have been studied using the OUCEM-86^TM (Osaka University Computerized Electronic Maze). The system is integrated by the following components: a Programmable Electronic Platform (PEP) (620×620 mm) equipped with 48 photo beam sensors (OPX-T30); a Programming Panel (PP) (Model BECM-0064) for paradigm stimulation; a Shock Generator Scrambler (SGS) (Model BSG-1065) to apply continuous or discontinuous electric current to the PEP; a Control Station (CS) (BEC 16-Bio Computer Control Station BCS-1105; Bio Medica, Ltd., Osaka) which processes inputs/outputs as an interface device to automatically computerize behavioral parameters; and a Computer System (NEC PC-9801 VM2) with 1 megabyte Random Access Memory (RAM) for data processing and experimental setting.\n(§2) Male Wistar rats (175-200 g) (N =5-8 rats/group) received intracerebroventricular (i.c.v.) injections of GRF1-44 and SS-14 over a range of 0.1 to 10 mcg. Then the rats were studied in the OUCEM under two different paradigms (e.g., open field and maze paradigms).\nThe animals were placed in the PEP for 30-minute periods and locomotor activity (LA) was automatically recorded in an open field paradigm. Total LA is represented as total inputs (I/O) including movements in four-footed position (4F) and in two-footed position (2F), grooming, rearing and jumping activity, while linear (horizontal) movements (4F) are represented as pulses per minute (pm) or cm^2 /min"}, "Male Wistar rats [3]": {"system": "Male Wistar rats", "experiment": "Locomotor activity and learning in maze paradigm (escape from 1.5 mA shock area), i.c.v. injection", "format": "in vivo", "procedure": "The animals had to learn to escape from the shock area in order to avoid a continuous 1.5 mA electric shock. Experimental time --30 minutes.\nThe rats were treated intracerebroventricularly with SS-14 (1 mcg) and GRF1-44 (1 mcg) and their behavior was automatically recorded by computer using the maze paradigm shown in FIG. 1. p/t denotes pulses per time unit (minute). Locomotor activity was quantified in pulses per minute or cm^2 /min. Total inputs (I/O) in neutral position (white bars) and shock position (black bars) denote how many times the animals enter neutral and shock areas. The N/S ratio results from dividing I/O in neutral position by I/O in shock position and is interpreted as an index of learning in the 30-minute experimental period. The positional time (seconds) represents how long the animals stay in neutral (white bars) or shock (black bars) areas. N-sp and S-sp (in seconds) indicate the time-latency per movement or input in neutral (white bars) and shock (black bars) areas, respectively.\nas §1, §2\nThe amount of inputs (I/O) induced by SS was 103.5±29.5 (control =216.25±55.19, t=8.49, p<0.005) in the neutral area (NA) and 77.14±13.5 I/O in the shock area (SA) (control =298±40, t=1.26, n.s.). GRF generated 459.35±32.5 I/O in NA (t=18.13, p<0.005) and 340.5±63.5 I/O in SA (t=9.07, p<0.005) (FIGS. 1C,3). The NA/SA (N/S) ratios for control, SS- and GRF-treated rats were 0.72, 1.33, and 1.35, respectively (FIG. 2)."}},
  "note": "No end group written: not given here.",
  "data": [
    {"compound": "GRF (1-29) NH2: GRF product given s.c. or i.v. to dementia patients; called GRF in Example 3 (YADAIFTNSYRKVLGQLSARKLLQDIMSR-NH2; UniProt P01286 32-60, looked up, fragment)", "values": [
      {"measurement": "overall effect confirmed by re-evaluation after end of administration", "setting": "[1]", "result": "significant effect"}
    ]},
    {"compound": "GRF1-29: 1-29 segment of growth hormone releasing factor", "values": [
      {"measurement": "ED50 of change in LA", "setting": "Male Wistar rats [2]", "result": 297, "unit": "pmol"},
      {"measurement": "Emax of change in LA (given as a dose)", "setting": "Male Wistar rats [2]", "result": 5.95, "unit": "nmol"}
    ]},
    {"compound": "GRF1-44: 1-44 segment of growth hormone releasing factor, injected i.c.v. in rats; called GRF in Examples 1-2", "values": [
      {"measurement": "ED50 of change in LA", "setting": "Male Wistar rats [2]", "result": 99.1, "unit": "pmol"},
      {"measurement": "Emax of change in LA (given as a dose)", "setting": "Male Wistar rats [2]", "result": 1.98, "unit": "nmol"}
    ]},
    {"compound": "C[C@H](N)C(=O)NCC(=O)N[C@H]1CSSC[C@@H](C(=O)O)NC(=O)[C@H](CO)NC(=O)[C@H]([C@@H](C)O)NC(=O)[C@H](Cc2ccccc2)NC(=O)[C@H]([C@@H](C)O)NC(=O)[C@H](CCCCN)NC(=O)[C@H](Cc2c[nH]c3ccccc23)NC(=O)[C@H](Cc2ccccc2)NC(=O)[C@H](Cc2ccccc2)NC(=O)[C@H](CC(N)=O)NC(=O)[C@H](CCCCN)NC1=O", "note": "[SS, somatostatin]", "values": [
      {"measurement": "locomotor activity (LA), maze paradigm", "setting": "Male Wistar rats [3]; 1 mcg i.c.v., 30 minutes, control 17.12±5.42 pm", "result": "6.01±1.45", "unit": "pm"},
      {"measurement": "NA/SA (N/S) ratio (index of learning)", "setting": "Male Wistar rats [3]; 1 mcg i.c.v., control 0.72", "result": 1.33},
      {"measurement": "amount of inputs (I/O) in the neutral area (NA)", "setting": "Male Wistar rats [3]; 1 mcg i.c.v., control 216.25±55.19", "result": "103.5±29.5", "unit": "I/O"},
      {"measurement": "amount of inputs (I/O) in the shock area (SA)", "setting": "Male Wistar rats [3]; 1 mcg i.c.v., control 298±40", "result": "77.14±13.5", "unit": "I/O"},
      {"measurement": "learning abilities (N/S ratio as index)", "setting": "Male Wistar rats [3]; doses of approximately 6.10×10^-10 mol (SS) and 1.98×10^-10 mol (GRF), i.c.v.", "result": "improve learning abilities"},
      {"measurement": "comparison of SS and GRF in improving learning", "setting": "Male Wistar rats [3]; maze paradigm, i.c.v.", "result": "more effective than GRF in improving learning"},
      {"measurement": "locomotor activity (LA), open field", "setting": "Male Wistar rats [2]; 1 mcg i.c.v. (SS-14 / GRF1-44), 30-minute period, control 31.16±6.90 pm", "result": "20.88±2.82", "unit": "pm"},
      {"measurement": "ED50 of change in LA", "setting": "Male Wistar rats [2]", "result": 1830, "unit": "pmol"},
      {"measurement": "Emax of change in LA (given as a dose)", "setting": "Male Wistar rats [2]", "result": 6.10, "unit": "nmol"}
    ]}
  ]
}
